{
  "source": "PubChem BioAssay AID180",
  "about": "(DTP/NCI, 2004)",
  "tested_on": "BDF1 mice, Adenocarcinoma 755 s.c., tumor weight T/C",
  "test": "NCI In Vivo Anticancer Drug Screen. Data for tumor model Adenocarcinoma 755 (subcutaneous) in B6D2F1 (BDF1) mice",
  "settings": "endpoint: mean tumor weight, higher = larger tumour",
  "procedure,_shortened": "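Tumor-bearing mice receive test compound while controls get vehicle alone. Antitumor effect is scored from survival or tumor dimensions as a T/C quotient.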",
  "note": "Where “and” joins values, the source holds several entries; their conditions need not be identical. Identical values can stand only once.",
  "data": [
    {"compound": "Nc1nc(=S)c2ncn(C3CCCO3)c2[nH]1", "note": "(stereo unspecified)", "values": [
      {"measurement": "T/C", "setting": "dose: 0.7 mg/kg/injection, schedule: Q01DX011 (ip), vehicle: carboxymethylcellulose (CMC)", "value": "71 % of control"},
      {"measurement": "T/C", "setting": "dose: 1.5 mg/kg/injection, schedule: Q01DX011 (ip), vehicle: carboxymethylcellulose (CMC)", "value": "60 % of control"},
      {"measurement": "T/C", "setting": "dose: 3.0 mg/kg/injection, schedule: Q01DX011 (ip), vehicle: carboxymethylcellulose (CMC)", "value": "38 % of control"},
      {"measurement": "T/C", "setting": "dose: 7.5 mg/kg/injection, schedule: Q01DX011 (ip), vehicle: carboxymethylcellulose (CMC)", "value": "2 % of control"},
      {"measurement": "T/C", "setting": "dose: 15.0 mg/kg/injection, schedule: Q01DX011 (ip), vehicle: carboxymethylcellulose (CMC)", "value": "2 % of control"}
    ]},
    {"compound": "Nc1[nH]c(=O)[nH]c(=O)c1C(=O)CCl", "values": [
      {"measurement": "T/C", "setting": "dose: 30.0 mg/kg/injection, schedule: Q01DX011 (ip), vehicle: carboxymethylcellulose (CMC)", "value": "77 % of control"}
    ]},
    {"compound": "CCc1c(Cl)nc(N)nc1Nc1ccccc1Br", "values": [
      {"measurement": "T/C", "setting": "dose: 15.0 mg/kg/injection, schedule: Q01DX011 (ip), vehicle: methylcellulose (MC)", "value": "96 % of control"},
      {"measurement": "T/C", "setting": "dose: 31.0 mg/kg/injection, schedule: Q01DX011 (ip), vehicle: methylcellulose (MC)", "value": "101 % of control"},
      {"measurement": "T/C", "setting": "dose: 62.0 mg/kg/injection, schedule: Q01DX011 (ip), vehicle: methylcellulose (MC)", "value": "76 % of control"},
      {"measurement": "T/C", "setting": "dose: 250.0 mg/kg/injection, schedule: Q01DX011 (ip), vehicle: methylcellulose (MC)", "value": "75 % of control"}
    ]},
    {"compound": "OCCn1cnc2c(=S)nc[nH]c21", "values": [
      {"measurement": "T/C", "setting": "dose: 25.0 mg/kg/injection, schedule: Q01DX011 (ip), vehicle: methylcellulose (MC)", "value": "38 % of control"},
      {"measurement": "T/C", "setting": "dose: 75.0 mg/kg/injection, schedule: Q01DX011 (ip), vehicle: methylcellulose (MC)", "value": "74 % of control"},
      {"measurement": "T/C", "setting": "dose: 225.0 mg/kg/injection, schedule: Q01DX011 (ip), vehicle: methylcellulose (MC)", "value": "34 % of control"}
    ]},
    {"compound": "c1ccc2c3c(ccc2c1)Sc1ccc2ccccc2c1N3", "values": [
      {"measurement": "T/C", "setting": "dose: 27.5 mg/kg/injection, schedule: Q01DX011 (ip), vehicle: methylcellulose (MC)", "value": "73 % of control"},
      {"measurement": "T/C", "setting": "dose: 27.5 mg/kg/injection, schedule: Q01DX011 (ip), vehicle: other", "value": "108 % of control"},
      {"measurement": "T/C", "setting": "dose: 55.0 mg/kg/injection, schedule: Q01DX011 (ip), vehicle: methylcellulose (MC)", "value": "76 % of control"},
      {"measurement": "T/C", "setting": "dose: 55.0 mg/kg/injection, schedule: Q01DX011 (ip), vehicle: other", "value": "115 % of control"},
      {"measurement": "T/C", "setting": "dose: 110.0 mg/kg/injection, schedule: Q01DX011 (ip), vehicle: methylcellulose (MC)", "value": "58 % of control"},
      {"measurement": "T/C", "setting": "dose: 440.0 mg/kg/injection, schedule: Q01DX011 (ip), vehicle: other", "value": "64 % of control"}
    ]},
    {"compound": "CC(=O)OCC(=O)[C@@]1(O)CC[C@H]2[C@@H]3CCC4=CC(=O)C=C[C@]4(C)[C@H]3C(=O)C[C@@]21C", "values": [
      {"measurement": "T/C", "setting": "dose: 0.9 mg/kg/injection, schedule: Q01DX011 (sc), vehicle: steriod suspending solution", "value": "68 % of control"},
      {"measurement": "T/C", "setting": "dose: 1.7 mg/kg/injection, schedule: Q01DX011 (sc), vehicle: steriod suspending solution", "value": "72 % of control"},
      {"measurement": "T/C", "setting": "dose: 3.5 mg/kg/injection, schedule: Q01DX011 (sc), vehicle: steriod suspending solution", "value": "76 % of control"},
      {"measurement": "T/C", "setting": "dose: 3.7 mg/kg/injection, schedule: Q01DX011 (sc), vehicle: steriod suspending solution", "value": "64 % of control"},
      {"measurement": "T/C", "setting": "dose: 7.0 mg/kg/injection, schedule: Q01DX011 (sc), vehicle: steriod suspending solution", "value": "106 % of control"},
      {"measurement": "T/C", "setting": "dose: 7.1 mg/kg/injection, schedule: Q01DX011 (sc), vehicle: steriod suspending solution", "value": "39 % of control"},
      {"measurement": "T/C", "setting": "dose: 7.5 mg/kg/injection, schedule: Q01DX011 (sc), vehicle: steriod suspending solution", "value": "50 % of control"},
      {"measurement": "T/C", "setting": "dose: 14.0 mg/kg/injection, schedule: Q01DX011 (sc), vehicle: steriod suspending solution", "value": "52 % of control"},
      {"measurement": "T/C", "setting": "dose: 14.3 mg/kg/injection, schedule: Q01DX011 (sc), vehicle: steriod suspending solution", "value": "44 % of control"},
      {"measurement": "T/C", "setting": "dose: 15.0 mg/kg/injection, schedule: Q01DX011 (sc), vehicle: steriod suspending solution", "value": "27 % of control and 33 % of control"},
      {"measurement": "T/C", "setting": "dose: 28.7 mg/kg/injection, schedule: Q01DX011 (sc), vehicle: steriod suspending solution", "value": "19 % of control and 26 % of control and 27 % of control"},
      {"measurement": "T/C", "setting": "dose: 30.0 mg/kg/injection, schedule: Q01DX011 (sc), vehicle: steriod suspending solution", "value": "13 % of control and 16 % of control"},
      {"measurement": "T/C", "setting": "dose: 57.5 mg/kg/injection, schedule: Q01DX011 (sc), vehicle: steriod suspending solution", "value": "3 % of control and 11 % of control and 17 % of control"},
      {"measurement": "T/C", "setting": "dose: 60.0 mg/kg/injection, schedule: Q01DX011 (sc), vehicle: steriod suspending solution", "value": "12 % of control"},
      {"measurement": "T/C", "setting": "dose: 115.0 mg/kg/injection, schedule: Q01DX011 (sc), vehicle: steriod suspending solution", "value": "5 % of control"}
    ]},
    {"compound": "CC(C)COC(=O)C1(N)CCCC1", "values": [
      {"measurement": "T/C", "setting": "dose: 25.0 mg/kg/injection, schedule: Q01DX011 (ip), vehicle: carboxymethylcellulose (CMC)", "value": "98 % of control"},
      {"measurement": "T/C", "setting": "dose: 50.0 mg/kg/injection, schedule: Q01DX011 (ip), vehicle: carboxymethylcellulose (CMC)", "value": "33 % of control"},
      {"measurement": "T/C", "setting": "dose: 100.0 mg/kg/injection, schedule: Q01DX011 (ip), vehicle: carboxymethylcellulose (CMC)", "value": "12 % of control"}
    ]},
    {"compound": "C[C@]12CC[C@H](OC3OC(CO)C(O)C(O)C3O)C[C@H]1CC[C@@H]1[C@@H]2CC[C@]2(C)[C@@H](C3=CCOC3=O)CC[C@]12O", "note": "(stereo partly specified)", "values": [
      {"measurement": "T/C", "setting": "dose: 0.13 mg/kg/injection, schedule: Q01DX011 (ip), vehicle: saline", "value": "34 % of control"},
      {"measurement": "T/C", "setting": "dose: 0.25 mg/kg/injection, schedule: Q01DX011 (ip), vehicle: saline", "value": "35 % of control"},
      {"measurement": "T/C", "setting": "dose: 0.5 mg/kg/injection, schedule: Q01DX011 (ip), vehicle: saline", "value": "22 % of control and 44 % of control"},
      {"measurement": "T/C", "setting": "dose: 1.0 mg/kg/injection, schedule: Q01DX011 (ip), vehicle: saline", "value": "3 % of control"}
    ]}
  ]
}
